# Measurements reported in paper PMC12526400, “Insight into Cytotoxic Potential of Erica spiculifolia Salisb (Balkan Heath)” (Plants, 2025).
# Where “and” joins values, the source holds several entries; their conditions need not be identical. Equal values may be shown once. Entries after “also recorded” stand apart in the source; their conditions may differ. Read-outs that look alike come from different tables or passages of the source.
# Tests used:
# LAMA-84 cells = test: MTT cytotoxicity, LAMA-84; type: cell-based, human
# Text: (§1) To evaluate the anticancer potential of the studied E. spiculifolia extract, we employed a diverse panel of human cancer cell lines alongside a non-malignant control. The hematological models included LAMA-84, a chronic myeloid leukemia line harboring the Philadelphia chromosome [t(9;22)], and HL-60, an acute promyelocytic leukemia line characterized by the t(15;17) translocation. These suspension cultures allowed us to assess the effects on leukemic cells with distinct genetic drivers. In parallel, we investigated the antitumor activity of the plant extract against reproductive system-associated carcinomas, including breast carcinoma cells (MCF-7 and MDA-MB-231) and a cervical cancer cell line (CASKI). MCF-7 cells are hormone-responsive and widely used to model estrogen receptor-positive disease, whereas MDA-MB-231 cells are triple-negative, highly aggressive, and resistant to conventional anti-hormonal therapy. To further broaden the spectrum, we included CASKI, a cervical carcinoma line associated with HPV16 infection, thereby extending the analysis to virally driven epithelial cancer. In addition, normal murine fibroblast cells (CCL-1) were used as a non-malignant comparator, enabling an assessment of selectivity between normal and malignant cells. The presence and degree of tumor selectivity was assessed by calculating the correspondent selectivity indices (SI, selectivity index), defined as the ratio between the half-inhibitory concentrations of the extract in healthy and malignant cells (Table 2).
# (§2) The antiproliferative activity of the extract, gallic, oleanolic, and protocatechuic acids was screened against human malignant cell lines of hematological (LAMA-84, HL-60) and epithelial (MDA-MB-231, MCF-7, CASKI) origin, as well as normal murine fibroblast cells (CCL-1). All cell lines were purchased from the German Collection of Microorganisms and Cell Cultures (DSMZ GmbH, Braunschweig, Germany). Cell cultures were cultivated in a growth medium RPMI 1640 supplemented with 10% fetal bovine serum (FBS), 5% L-glutamine, and incubated under standard conditions of 37 °C and 5% humidified CO2 atmosphere.
# (§3) The cytotoxic potential of the E. spiculifolia extract was studied using a validated method for assessing cell viability known as the Mosmann MTT test. The assay is colorimetric and measures the activity of mitochondrial enzymes, reducing the yellow dye MTT (3-(4,5-dimethylthiazol-2-yl)-2,5-diphenyltetrazolium bromide) to violet formazan crystals. According to protocol, exponential-phased cells were harvested and seeded (100 μL/well) in 96-well plates at the appropriate density. Following a 24 h incubation, cells were treated with serial dilutions of the extract in the concentration range 1000–31.3 μg/mL. Following a 72 h exposure, filter sterilized MTT substrate solution (5 mg/mL in PBS) was added to each well of the culture plate. A further 4h incubation allowed the reduction of the yellow MTT reagent into purple formazan crystals in metabolically active viable cells, which were dissolved in an isopropyl alcohol solution containing 5% formic acid prior to absorbance measurement at 550 nm. Untreated cells (100% cell viability) were used as negative control. Cisplatin was used as positive control.
# (§4) Collected absorbance values were blanked against MTT and isopropanol solution and normalized to the mean value of untreated control (100% cell viability). The obtained data were fitted to “concentration-effect” curves and analyzed by means of non-linear regression in the GraphPad Prism 8.0 software. Statistical analyses were performed using one-way analysis of variance (ANOVA) to assess differences among experimental groups. Where significant differences were detected, post hoc comparisons were conducted using Tukey’s test.
# HL-60 cells = test: MTT cytotoxicity, HL-60; type: cell-based, human
# Text: as §1, §2, §3, §4
# MDA-MB-231 cells = test: MTT cytotoxicity, MDA-MB-231; type: cell-based, human
# Text: as §1, §2, §3, §4
# MCF-7 cells = test: MTT cytotoxicity, MCF-7; type: cell-based, human
# Text: as §1, §2, §3, §4
# CASKI cells = test: MTT cytotoxicity, CASKI; type: cell-based, human
# Text: as §1, §2, §3, §4
# [1] = tested on: CCL-1 normal murine fibroblast cells; test: MTT cytotoxicity, normal fibroblasts CCL-1; type: cell-based
# Text: as §1, §2
# as §3, with “Following a 72 h exposure, filter sterilized MTT substrate solution (5 mg/mL in PBS) was added to each well of the culture plate.” left out, “Untreated cells (100% cell viability) were used as negative control. Cisplatin was used as positive control.” left out
# Collected absorbance values were blanked against MTT and isopropanol solution and normalized to the mean value of untreated control (100% cell viability). The obtained data were fitted to “concentration-effect” curves and analyzed by means of non-linear regression in the GraphPad Prism 8.0 software. […] Where significant differences were detected, post hoc comparisons were conducted using Tukey’s test.
# [2] = tested on: cancer versus normal cell models; parameters: method as in PMID 36297448, doi:10.13005/bpj/3133, PMID 37108571; settings: depending on the cancer versus normal cell models applied; cited from earlier work
# [3] = tested on: hepatocellular carcinoma HuH7 cells; parameters: method as in PMID 20415421; settings: cited from earlier work
# [4] = tested on: triple-negative MDA-MB-231 breast cancer cells; parameters: method as in doi:10.3724/SP.J.1145.2010.00202; settings: cited from earlier work
# HCT116 = tested on: HCT116; parameters: method as in PMID 30928277; settings: cited from earlier work
# SW480 = tested on: SW480; parameters: method as in PMID 30928277; settings: cited from earlier work
# [5] = Homo sapiens, LAMA-84, MTT, 72 h exposure, bcr-abl+ chronic myeloid leukemia, read-out: IC50 LAMA-84 (converted)
# [6] = Homo sapiens, LAMA-84, MTT, 72 h exposure, molar equivalent in brackets, read-out: IC50 LAMA-84 (converted)
# [7] = Homo sapiens, HL-60, MTT, 72 h exposure, promyelocytic leukemia, read-out: IC50 HL-60 (converted)
# [8] = Homo sapiens, MDA-MB-231, MTT, 72 h exposure, triple-negative breast carcinoma, read-out: IC50 MDA-MB-231 (converted)
# [9] = Homo sapiens, MCF7, MTT, 72 h exposure, hormone-responsive breast carcinoma, read-out: IC50 MCF-7 (converted)
# [10] = Homo sapiens, Ca-Ski, MTT, 72 h exposure, cervical cancer, read-out: IC50 CASKI (converted)
# [11] = Mus musculus, MTT, 72 h exposure, normal murine fibroblast cells, read-out: IC50 CCL-1 (converted)
# [12] = 72 h, concentrations up to 500 μg/mL
structure (smiles),measurement,setting,value
"N.N.[Cl][Pt][Cl] [cisplatin, reference compound]",IC50 LAMA-84,"LAMA-84 cells; MTT, 72 h exposure, bcr-abl+ chronic myeloid leukemia",11.4 ± 0.99 µg/mL
same,IC50,"LAMA-84 cells; MTT, 72 h exposure, molar equivalent in brackets, read-out: IC50 LAMA-84 (converted)",37.8 µM
same,SI LAMA-84,LAMA-84 cells; selectivity index = IC50 in CCL-1 / IC50 in LAMA-84,<1
same,IC50,"HL-60 cells; MTT, 72 h exposure, molar equivalent in brackets, read-out: IC50 HL-60 (converted)",8.9 µM
same,IC50 HL-60,"HL-60 cells; MTT, 72 h exposure, promyelocytic leukemia",2.7 ± 0.4 µg/mL
same,SI HL-60,HL-60 cells; selectivity index = IC50 in CCL-1 / IC50 in HL-60,2.1
same,IC50,"MDA-MB-231 cells; MTT, 72 h exposure, molar equivalent in brackets, read-out: IC50 MDA-MB-231 (converted)",57.1 µM
same,IC50 MDA-MB-231,"MDA-MB-231 cells; MTT, 72 h exposure, triple-negative breast carcinoma",17.2 ± 1.3 µg/mL
same,SI MDA-MB-231,MDA-MB-231 cells; selectivity index = IC50 in CCL-1 / IC50 in MDA-MB-231,<1
same,IC50 MCF-7,"MCF-7 cells; MTT, 72 h exposure, hormone-responsive breast carcinoma",15.5 ± 1.7 µg/mL
same,IC50,"MCF-7 cells; MTT, 72 h exposure, molar equivalent in brackets, read-out: IC50 MCF-7 (converted)",51.6 µM
same,SI MCF-7,MCF-7 cells; selectivity index = IC50 in CCL-1 / IC50 in MCF-7,<1
same,IC50 CASKI,"CASKI cells; MTT, 72 h exposure, cervical cancer",14.6 ± 1.9 µg/mL
same,IC50,"CASKI cells; MTT, 72 h exposure, molar equivalent in brackets, read-out: IC50 CASKI (converted)",48.6 µM
same,SI CASKI,CASKI cells; selectivity index = IC50 in CCL-1 / IC50 in CASKI,<1
same,IC50,"[1]; MTT, 72 h exposure, molar equivalent in brackets, read-out: IC50 CCL-1 (converted)",18.7 µM
same,IC50 CCL-1,"[1]; MTT, 72 h exposure, normal murine fibroblast cells",5.6 ± 0.7 µg/mL
same,SI values typically reported,[2],1–40
COc1cccc2c1C(=O)c1c(O)c3c(c(O)c1C2=O)C[C@@](O)(C(=O)CO)C[C@@H]3O[C@H]1C[C@H](N)[C@H](O)[C@H](C)O1 [doxorubicin],SI values typically reported,[2],1–40
O=C(O)c1cc(O)c(O)c(O)c1 [gallic acid],IC50,LAMA-84 cells; [5],6.2 µg/mL
same,IC50,LAMA-84 cells; [6],36.4 µM
same,IC50,HL-60 cells; [7],> 500 µg/mL
same,IC50,MDA-MB-231 cells; [8],> 500 µg/mL
same,IC50,MCF-7 cells; [9],> 500 µg/mL
same,cytotoxicity against CASKI (in words),CASKI cells; 72 h exposure,inactive
same,IC50,CASKI cells; [10],> 500 µg/mL
same,IC50,[1]; [11],> 500 µg/mL
CC1(C)CC[C@]2(C(=O)O)CC[C@]3(C)C(=CC[C@@H]4[C@@]5(C)CC[C@H](O)C(C)(C)[C@@H]5CC[C@]43C)[C@@H]2C1 [oleanolic acid],IC50,LAMA-84 cells; [5],1.7 µg/mL
same,IC50,LAMA-84 cells; [6],3.7 µM
same,IC50,HL-60 cells; [7],> 500 µg/mL
same,cytotoxicity against MDA-MB-231 (in words),MDA-MB-231 cells; [12],inactive; also recorded: did not exert cytotoxic effects
same,IC50,MDA-MB-231 cells; [8],> 500 µg/mL
same,cytotoxicity against MCF-7 (in words),MCF-7 cells; [12],inactive; also recorded: did not exert cytotoxic effects
same,IC50,MCF-7 cells; [9],> 500 µg/mL
same,cytotoxicity against CASKI (in words),CASKI cells; 72 h exposure,inactive
same,IC50,CASKI cells; [10],> 500 µg/mL
same,IC50,[1]; [11],> 500 µg/mL
same,IC50,[3],100 µM
same,IC50 MDA-MB-231 (previous studies),[4],38.8 µg/mL
O=C(O)c1ccc(O)c(O)c1 [protocatechuic acid],IC50,"LAMA-84 cells; Homo sapiens, LAMA-84, 72 h, read-out: IC50 LAMA-84",> 500 µg/mL and > 3.24 mM
same,IC50,"HL-60 cells; Homo sapiens, HL-60, 72 h, read-out: IC50 HL-60",> 500 µg/mL
same,IC50,"MDA-MB-231 cells; Homo sapiens, MDA-MB-231, 72 h, read-out: IC50 MDA-MB-231",311 µg/mL
same,IC50,"MCF-7 cells; Homo sapiens, MCF7, 72 h, read-out: IC50 MCF-7",> 500 µg/mL
same,IC50,"CASKI cells; Homo sapiens, Ca-Ski, 72 h, read-out: IC50 CASKI",> 500 µg/mL
same,IC50,"[1]; Mus musculus, Fibroblast, 72 h, read-out: IC50 CCL-1",> 500 µg/mL
C[C@H]1[C@H](C)CC[C@]2(C(=O)O)CC[C@]3(C)C(=CC[C@@H]4[C@@]5(C)CC[C@H](O)C(C)(C)[C@@H]5CC[C@]43C)[C@H]12 [ursolic acid],IC50,[3],75 µM
same,IC50,HCT116,13 µM
same,IC50,SW480,10.2 µM
